{"source": "patent US20240209028A1", "about": "“CNP COMPOUNDS” (priority 2022, published 2024)", "key": {"[1]": {"molecular_target": "neprilysin (NEP) (Homo sapiens, UniProt P08473)", "sequence (P08473 whole entry)": "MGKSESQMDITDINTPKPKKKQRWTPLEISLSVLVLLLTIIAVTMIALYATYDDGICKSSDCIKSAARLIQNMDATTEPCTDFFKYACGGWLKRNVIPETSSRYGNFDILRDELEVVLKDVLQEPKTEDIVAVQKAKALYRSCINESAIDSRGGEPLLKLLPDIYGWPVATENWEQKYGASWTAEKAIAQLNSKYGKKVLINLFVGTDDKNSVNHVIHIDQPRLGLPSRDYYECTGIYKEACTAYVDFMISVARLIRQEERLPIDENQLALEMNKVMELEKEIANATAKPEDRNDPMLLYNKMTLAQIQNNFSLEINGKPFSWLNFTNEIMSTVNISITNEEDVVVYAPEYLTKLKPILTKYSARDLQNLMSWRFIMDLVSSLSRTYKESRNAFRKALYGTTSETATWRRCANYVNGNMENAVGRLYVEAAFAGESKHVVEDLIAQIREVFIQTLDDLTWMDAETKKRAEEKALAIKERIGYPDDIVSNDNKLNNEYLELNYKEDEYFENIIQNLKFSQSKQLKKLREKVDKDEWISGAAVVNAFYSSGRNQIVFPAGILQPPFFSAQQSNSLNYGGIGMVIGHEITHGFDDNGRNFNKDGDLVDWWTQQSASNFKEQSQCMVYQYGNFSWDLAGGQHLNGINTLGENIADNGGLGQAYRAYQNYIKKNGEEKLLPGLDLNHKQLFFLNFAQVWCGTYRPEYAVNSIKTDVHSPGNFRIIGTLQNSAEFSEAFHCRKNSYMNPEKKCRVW", "test": "In vitro neprilysin stability", "conditions": "recombinant human neprilysin (rhNEP), pH 7.4", "experimental": "Therefore, an in vitro neprilysin stability assay was set up to test the neprilysin mediated degradation of selected CNP compounds.\nProcedure: In short, the assay buffer consisted of PBS-buffer (pH 7.4, ThermoFisher Scientific) with a final concentration of 0.005% v/v tween 20 (Sigma-Aldrich). Recombinant human neprilysin (rhNEP; R&D Systems) and the CNP compounds were dissolved in assay buffer. Native CNP22 (0065, Chem. 1) was included as positive control on each day of incubation. Initially, the CNP compound (the final concentration was 1000 nM) was pre-incubated in assay buffer for 10 min at 37° C. The assay was started by adding either rhNEP (final concentration was 2 μg protein per mL) or assay buffer (adsorption experiment) and the incubation was conducted at 37° C. […] The mixture was centrifuged at 13000 rpm at 4° C. for 20 minutes. After centrifugation, one volume of supernatant was mixed with one volume of Milli-Q water.\nAnalysis by LCMS: The mixture was analysed by LCMS using an Acquity UPLC Peptide CSH C18 analytical column from Waters (130 Å, 1.7 μm, 1*50 mm) operated at 60° C. A gradient elution was conducted with a Nexera UHPLC system (Shimadzu) using mobile phase A (consisting of Milli-Q water with 0.1% formic acid) and mobile phase B (consisting of acetonitrile with 0.1% formic acid). The flow was 0.3 ml/min. A zenoTOF 7600 mass spectrometer (Sciex) was used as detector and operated in positive electrospray ionisation mode. Data was recorded in full scan mode (m/z 300-1700).\nCalibration curves were prepared in assay buffer and treated as study samples. These samples were used for calculating the concentration of the relevant CNP compound in the in vitro samples. Quality control samples were included. For at least 75% of the standards and QCs, the deviation between nominal and calculated concentration was below 20%.\nAll incubations were conducted in duplicate. Data was reported as percent remaining at 90 min (based on calculated concentrations) compared to the average concentration in the 0.5-minute time point samples."}, "[2]": {"test": "Accelerated chemical stability (RP-UPLC recovery and LCMS degradation pattern, 37° C.)", "format": "physicochemical", "design": "Isomers TZ / Isomers 2 W / Loss of 18 amu TZ / Loss of 18 amu 2 W / Fragments TZ / Fragments 2 W / Fragments 1 W / Fragments 3 W / Fragments 4 W / Fragments 5 W / Fragments 6 W / Others 1 W / Others 3 W / Others 4 W / Others 5 W / Others 6 W / Isomers 1 W / Isomers 3 W / Isomers 4 W / Isomers 5 W / Isomers 6 W / Loss of 18 amu 1 W / Loss of 18 amu 3 W / Loss of 18 amu 4 W / Loss of 18 amu 5 W / Loss of 18 amu 6 W: unit not given here", "conditions": "LCMS, 8 mM sodium phosphate, 250 mM glycerol, pH 6.5", "description": "In order to determine the chemical stability of CNP compounds in formulation, samples of CNP compounds in buffer were exposed to accelerated chemical degradation by heating. The stability of a given peptide was assessed by measuring recovery of intact peptide by quantification by RP-UPLC. To assess the chemical degradation pattern samples were also analysed by LC-MS.\nSample preparation: Samples for the 2 week study were prepared according to the principles described in Example 5.\nSamples for the 6 week study were prepared by dissolving lyophilized peptide in buffer (8 mM phosphate, 250 mM glycerol, pH 7.4) to a nominal peptide concentration of 5000 nmol/ml followed by pH adjustment with 0.1 N HCl to pH 6.5.\nIncubation: For the 2 week study a time-zero (TZ) sample was pulled and stored at −18° C. and the remaining volume was incubated at 37° C. Samples were pulled and stored at −18° C. after 2 weeks of incubation. Frozen samples were thawed, diluted to about 200 nmol/mL and the extent of chemical degradation was determined using LCMS as described.\nFor the 6 week study a time-zero (TZ) sample was pulled and stored at −18° C. and the remaining volume was incubated at 37° C. Samples were pulled on a weekly basis and stored at −18° C. until the last sampling time point at 6 weeks. Frozen samples were thawed, diluted to about 200 nmol/mL and the extent of chemical degradation was determined using RP-UPLC and LCMS as described.\nAnalysis of peptide recovery by RP-UPLC: The RP-UPLC method was performed on a Waters ACQUITY H-CLASS UPLC system fitted with a PDA detector. Separation was carried out on an ACQUITY UPLC BEH C8 Column (130 Å, 1.7 μm, 2.1 mm×150 mm) operating at a column temperature of 50° C. with eluent A (19.59 mM NH4H2PO4 41.71 mM (NH4)2HPO4, pH 6.5 and MeCN 9:1 v:v) and eluent B (80% MeCN in water). UV-detection was carried out at 214 nm. The analysis was performed by injection of 3 μL of sample onto the column which was eluted with a 1-step linear gradient of eluents A and B from 27 to 30% B over 20 minutes followed by a wash at 95% B over 2 minutes followed by a re-equilibration phase for 7 minutes at a constant flow rate of 0.3 mL/min. This yielded an analysis time of 30 minutes per sample. The area of the peak corresponding to intact CNP compound was given on a percentage scale relative to the total peptide peak area.\nAnalysis of chemical degradation patterns by LCMS: Samples were analysed on a […] UPLC from Thermo Scientific, using a Waters Acquity C18 reversed-phase column, 300 Å, […] particles 1 mm×150 mm. The compounds were separated by a linear gradient of solvent B from 5% to 55% over 48 minutes, using solvent A: water, 0.1% formic acid with 0.02% TFA and solvent B: acetonitrile, 0.1% formic acid with 0.02% TFA. Mass spectra were acquired by a Q Exactive Plus hybrid Quadrupole-Orbitrap mass spectrometer, BioPharma option (Thermo Scientific) interfaced with H-ESI II ion source. Data acquisitions were performed with a m/z 500 to 2000 scan range and a resolution of 30000.\nThe data list was aggregated into a summed table of the compounds. The table headers were defined as follows: […]\nResults: The results from LCMS analysis of a 2 week accelerated degradation study on several CNP compounds of the present invention are summarised in Table 12. The results from RP-UPLC and LCMS analysis of a 6 week accelerated degradation study on CNP compound 9482 (Chem. 137) is summarised in Table 13 and Table 14 respectively."}}, "note": "Starred links: 1 amine or outer side, 2 acyl side, 3 side chain; linkers in the order of their positions; H or OH if unused. Positions of bridges follow the written chain, without caps; N, C: chain ends. Residues, ends and D or L forms follow the SMILES beside them. *: point of attachment. C18 diacid = O=C(O)CCCCCCCCCCCCCCCCC(=O)*; γGlu = O=C(O)[C@H](CCC(=O)[*:2])N[*:1]"}
{"molecule": "CC[C@H](C)[C@@H]1NC(=O)[C@H](CCCNC(=N)N)NC(=O)[C@H](CC(=O)O)NC(=O)[C@H](CC(C)C)NC(=O)[C@@H]2CCCN2C(=O)[C@H](CC(C)C)NC(=O)CNC(=O)[C@H](Cc2ccccc2)NC(=O)[C@@H](NC(=O)CNC(=O)[C@H](CO)NC(=O)[C@H](CO)NC(=O)[C@H](CC(C)C)NC(=O)CNC(=O)[C@H](CCCCN)NC(=O)[C@H](CCCCN)NC(=O)[C@H](CCC(N)=O)NC(=O)[C@H](C)NC(=O)CNC(=O)[C@H](CCCCN)NC(=O)[C@H](Cc2ccc(O)cc2)NC(=O)[C@H](CCCCN)NC(=O)[C@H](CCCNC(=N)N)NC(=O)[C@H](C)NC(=O)[C@H](CCC(N)=O)NC(=O)[C@@H]2CCCN2C(=O)[C@H](Cc2c[nH]cn2)NC(=O)[C@H](CCC(=O)O)NC(=O)[C@H](CCC(N)=O)NC(=O)CC[C@H](NC(=O)CC[C@H](NC(=O)CC[C@H](NC(=O)CC[C@H](NC(=O)CC[C@H](NC(=O)CCCCCCCCCCCCCCCCC(=O)O)C(=O)O)C(=O)O)C(=O)O)C(=O)O)C(=O)O)CSSC[C@@H](C(=O)O)NC(=O)CNC(=O)[C@H](CC(C)C)NC(=O)CNC(=O)[C@H](CO)NC(=O)[C@H](CC(C)C)NC(=O)[C@H](CO)NC(=O)CNC1=O", "note": "[Compound 9482] ({C18 diacid-γGlu-γGlu-γGlu-γGlu-γGlu}-QEHPQARKYKGAQKKGLSSGCFGLPLDRIGSLSGLGC-OH; disulfide 21-37)", "values": [{"measurement": "remaining at 1.5 h, 1000 nM", "setting": "[1]", "value": 96.3, "unit": "%"}, {"measurement": "Fragments 2 W", "setting": "[2]; 2 weeks at 37° C.", "value": 0}, {"measurement": "Isomers 2 W", "setting": "[2]; 2 weeks at 37° C.", "value": 0}, {"measurement": "Loss of 18 amu 2 W", "setting": "[2]; 2 weeks at 37° C.", "value": 0}, {"measurement": "Others 2 W", "setting": "[2]; 2 weeks at 37° C.", "value": 0.3, "unit": "%"}, {"measurement": "Fragments TZ", "setting": "[2]; time zero", "value": 0}, {"measurement": "Isomers TZ", "setting": "[2]; time zero", "value": 0}, {"measurement": "Loss of 18 amu TZ", "setting": "[2]; time zero", "value": 0}, {"measurement": "Others TZ", "setting": "[2]; time zero", "value": 0, "unit": "%"}]}
